This note sets out measurements from patent US20250197442A1, “Peptide Synthesis in Aqueous Solution” (priority 2023, published 2025).

The conditions of the data set: for amount of Tween 80 required to dissolve the Fmoc protected amino acid, relative to its amount: aqueous solution, room temperature; for solubility in aqueous solutions: without the dissolving procedure.

Protocol: A process for dissolving Fmoc-AA in Aqueous Solution was developed and it is summarized as follows (FIG. 9). Firstly, a non-ionic surfactant is dissolved in a small portion of a water-miscible organic solvent, creating Solution A. Secondly, FAA is dissolved in another small portion of a water-miscible organic solvent, creating Solution B. These two solutions, Solution A and Solution B, are thoroughly mixed to create a homogeneous mixture. This mixture is then added vigorously to an aqueous solvent.
To enable the utilization of Fmoc-AA as a building block in an aqueous solution, a specialized procedure has been developed to render Fmoc-AA soluble in aqueous solvents. The present invention devised a method to render Fmoc-AA soluble in water. First, none ionic surfactant is dissolved in a small amount of water-mixable organic solution, creating solution A, and then secondly, a Fmoc-AA is dissolved in a small amount of water-mixable organic solvent to create solution B, Solution A is thoroughly mixed with Solution B. The resulting mixture is then vigorously added to an aqueous solution. Fmoc-AA aqueous solution is obtained (FIG. 9),
4 grams of Tween 80 are added to 2 ml of DMSO to create solution A. and 1 grams of Fmoc-AA are added to 5 ml of DMSO to create solution B, solution A and solution B are mixed thoroughly, and then the resulting mixture is added to 88 ml of water to obtain a 1% concentration of Fmoc-AA in aqueous solution.
• Step 1: Dissolve 1.08 grams of Fmoc-Gly in 6.13 ml of DMSO solvent. Next, add 6.00 milliliters (mL) of a 70% Tween 80 in DMSO solution to the Fmoc-Gly DMSO solution. • Step 2: Pour this mixture into 87 mL of deionized (DI) water.
Dissolve 0.18 grams of Fmoc-Phe in 1.98 DMSO of solvent. Next, add 2.26 milliliters (mL) of a 70% Tween 80 in DMSO solution to Fmoc-Phe solution.
Transfer this mixture into 20.38 mL of deionized water.
Gradually, add 70% T dropwise until the solution becomes clear.
This process yields a solution containing 0.72% Fmoc-Phe in an aqueous solution with 10.80% DMSO.

Take `O=C(O)CNC(=O)OCC1c2ccccc2-c2ccccc21` [Fmoc-Gly, Fmoc-Glycine]: the “amount of Tween 80 required to dissolve the Fmoc protected amino acid, relative to its amount” value is reported as “approximately four times” and the “solubility in aqueous solutions” value was “poor solubility”.

For the molecule `O=C(N[C@@H](Cc1ccccc1)C(=O)O)OCC1c2ccccc2-c2ccccc21` [Fmoc-Phe, Fmoc-Phenylalanine], the “amount of Tween 80 required to dissolve the Fmoc protected amino acid, relative to its amount” value is listed as “approximately eight times” and the “solubility in aqueous solutions” value is on record as “poor solubility”. Moreover, the “effect of raising the temperature on solubility in aqueous solution” value (raised temperature) is “significantly increase the solubility”.
